Measurements reported in ChEMBL document CHEMBL5550154, “Novel biaryloxazolidinone derivatives with broad-spectrum antibacterial activity, favorable drug-like profiles and in vivo efficacy against linezolid-resistant Staphylococcusaureus” (Eur J Med Chem, 2024).
Values after ≈ are worked out from the molar mass of the structure shown.

What was measured:
Staphylococcus aureus = assay: Antibacterial activity against methicillin-sensitive Staphylococcus aureus assessed as inhibition of bacterial growth incubated for 16 to 20 hrs by CLSI based broth liquid microdilution method; type: functional; settings: time 16-20 hrs
Enterococcus faecalis = assay: Antibacterial activity against linezolid-resistant Enterococcus faecalis assessed as inhibition of bacterial growth incubated for 16 to 20 hrs by CLSI based broth liquid microdilution method; type: functional; settings: time 16-20 hrs
[1] = Microsomal stability in human liver microsomes assessed as elimination half life pretreated with compound upto 60 mins followed by NADPH addition and measured after 60 mins by LC/MS analysis; type: ADME, Microsome; settings: time < 120 min; for half-life: liver microsomes, read-out: beta t1/2
[2] = Microsomal stability in dog liver microsomes assessed as elimination half life pretreated with compound upto 60 mins followed by NADPH addition and measured after 60 mins by LC/MS analysis; type: ADME, Canis lupus familiaris, Microsome; settings: time < 120 min; for half-life: liver microsomes, read-out: beta t1/2
[3] = Microsomal stability in rat liver microsomes assessed as elimination half life pretreated with compound upto 60 mins followed by NADPH addition and measured after 60 mins by LC/MS analysis; type: ADME, Microsome; settings: liver microsomes, read-out: beta t1/2
[4] = Microsomal stability in monkey liver microsomes assessed as intrinsic clearance pretreated with compound upto 60 mins followed by NADPH addition and measured after 60 mins by LC/MS analysis; type: ADME, Macaca mulatta, Microsome; settings: rhesus monkey, time < 120 min, read-out: CLH
[5] = Microsomal stability in rat liver microsomes assessed as intrinsic clearance pretreated with compound upto 60 mins followed by NADPH addition and measured after 60 mins by LC/MS analysis; type: ADME, Microsome; settings: time < 120 min, read-out: CLH
[6] = Microsomal stability in mouse liver microsomes assessed as intrinsic clearance pretreated with compound upto 60 mins followed by NADPH addition and measured after 60 mins by LC/MS analysis; type: ADME, Microsome; settings: time < 120 min, read-out: CLH
[7] = Microsomal stability in rat liver microsomes assessed as parent compound remaining pretreated with compound upto 60 mins followed by NADPH addition and measured after 60 mins by LC/MS analysis; type: ADME, Microsome; settings: liver microsomes, time < 120 min, read-out: Stability
[8] = Microsomal stability in mouse liver microsomes assessed as parent compound remaining pretreated with compound upto 60 mins followed by NADPH addition and measured after 60 mins by LC/MS analysis; type: ADME, Microsome; settings: liver microsomes, time < 120 min, read-out: Stability
[9] = Stability in human plasma assessed as parent compound remaining at 37 degreeC measured upto 60 mins by HPLC analysis; type: ADME, cell-free; settings: read-out: Stability
[10] = Stability in dog plasma assessed as parent compound remaining at 37 degreeC measured upto 60 mins by HPLC analysis; type: ADME, cell-free, Canis lupus familiaris; settings: read-out: Stability
[11] = Stability in rat plasma assessed as parent compound remaining at 37 degreeC measured upto 60 mins by HPLC analysis; type: ADME, cell-free; settings: read-out: Stability
[12] = Stability in human plasma assessed as parent compound remaining at 25 degreeC measured upto 60 mins by HPLC analysis; type: ADME, cell-free; settings: for remaining at 1 h: read-out: Stability; for Stability: 1 h
[13] = Stability in dog plasma assessed as parent compound remaining at 25 degreeC measured upto 60 mins by HPLC analysis; type: ADME, cell-free, Canis lupus familiaris; settings: read-out: Stability
[14] = Stability in mouse plasma assessed as parent compound remaining at 25 degreeC measured upto 60 mins by HPLC analysis; type: ADME, cell-free; settings: for Stability: 1 h
[15] = Plasma protein binding in human incubated for 6 hrs by LC-MS/MS analysis; type: ADME, cell-free; settings: read-out: PPB (converted)
[16] = Plasma protein binding in dog incubated for 6 hrs by LC-MS/MS analysis; type: ADME, cell-free, Canis lupus familiaris; settings: read-out: PPB (converted)
[17] = Plasma protein binding in rat incubated for 6 hrs by LC-MS/MS analysis; type: ADME, cell-free; settings: read-out: PPB (converted)
[18] = Plasma protein binding in mouse incubated for 6 hrs by LC-MS/MS analysis; type: ADME, cell-free; settings: read-out: PPB (converted)
[19] = Aqueous solubility of compound at pH 2 by LC-MS/MS analysis; type: physicochemical; settings: buffer
[20] = Apparent volume of distribution in Sprague-Dawley rat at 1 mg/kg, iv measured upto 24 hrs by LC-MS analysis; type: ADME, organism-based; settings: in vivo, read-out: Vz
[21] = Tmax in Sprague-Dawley rat at 10 mg/kg, IG measured upto 24 hrs by LC-MS analysis; type: ADME, organism-based; settings: in vivo, po
[22] = Cmax in Sprague-Dawley rat at 10 mg/kg, IG measured upto 24 hrs by LC-MS analysis; type: ADME, organism-based; settings: in vivo, po
[23] = Half life in ICR mouse at 1 mg/kg, iv measured upto 24 hrs by LC-MS analysis; type: ADME, organism-based; settings: in vivo
[24] = Clearance in ICR mouse at 1 mg/kg, iv measured upto 24 hrs by LC-MS analysis; type: ADME, organism-based; settings: in vivo
[25] = Tmax in ICR mouse at 10 mg/kg, IG measured upto 24 hrs by LC-MS analysis; type: ADME, organism-based; settings: in vivo, po
[26] = Cmax in ICR mouse at 10 mg/kg, IG measured upto 24 hrs by LC-MS analysis; type: ADME, organism-based; settings: in vivo, po
[27] = AUC (0 to t) in ICR mouse at 10 mg/kg, IG measured upto 24 hrs by LC-MS analysis; type: ADME, organism-based; settings: in vivo, po
[28] = Cytotoxicity against human HepG2 cells incubated for 48 hrs by MTT assay; type: toxicity, cell-based
Cytochrome P450 1A2 = biological target: T1, Cytochrome P450 1A2 (Homo sapiens, UniProt P05177); assay: Inhibition of CYP1A2 in human liver microsomes with alpha-naphthoflavone as reference inhibitor preincubated with compound for 5 mins followed by substrate addition and measured after 120 mins in presence of NADPH by LC-MS/MS analysis; type: ADME, Microsome
T1 sequence (P05177 whole entry): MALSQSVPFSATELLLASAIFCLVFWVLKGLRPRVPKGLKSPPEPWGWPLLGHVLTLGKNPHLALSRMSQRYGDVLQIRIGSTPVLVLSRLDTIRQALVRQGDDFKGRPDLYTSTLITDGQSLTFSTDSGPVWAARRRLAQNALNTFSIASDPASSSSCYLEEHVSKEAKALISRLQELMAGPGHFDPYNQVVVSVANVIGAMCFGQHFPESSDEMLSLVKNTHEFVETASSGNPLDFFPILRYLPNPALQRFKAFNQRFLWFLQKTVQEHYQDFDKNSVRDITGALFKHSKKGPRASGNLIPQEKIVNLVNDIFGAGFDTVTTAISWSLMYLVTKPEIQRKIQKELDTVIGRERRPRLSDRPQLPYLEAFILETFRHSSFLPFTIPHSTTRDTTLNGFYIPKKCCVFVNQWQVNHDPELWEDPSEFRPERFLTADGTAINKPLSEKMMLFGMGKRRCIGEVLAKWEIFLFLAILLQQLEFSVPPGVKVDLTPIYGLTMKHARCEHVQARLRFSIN

Cytochrome P450 2C9 = Cytochrome P450 2C9 (Homo sapiens, UniProt P11712); assay: Inhibition of CYP2C9 in human liver microsomes using […] preincubated with compound for 5 mins followed by substrate addition and measured after 120 mins in presence of NADPH by LC-MS/MS analysis; type: ADME, Microsome
Chain of Cytochrome P450 2C9 (P11712 whole entry): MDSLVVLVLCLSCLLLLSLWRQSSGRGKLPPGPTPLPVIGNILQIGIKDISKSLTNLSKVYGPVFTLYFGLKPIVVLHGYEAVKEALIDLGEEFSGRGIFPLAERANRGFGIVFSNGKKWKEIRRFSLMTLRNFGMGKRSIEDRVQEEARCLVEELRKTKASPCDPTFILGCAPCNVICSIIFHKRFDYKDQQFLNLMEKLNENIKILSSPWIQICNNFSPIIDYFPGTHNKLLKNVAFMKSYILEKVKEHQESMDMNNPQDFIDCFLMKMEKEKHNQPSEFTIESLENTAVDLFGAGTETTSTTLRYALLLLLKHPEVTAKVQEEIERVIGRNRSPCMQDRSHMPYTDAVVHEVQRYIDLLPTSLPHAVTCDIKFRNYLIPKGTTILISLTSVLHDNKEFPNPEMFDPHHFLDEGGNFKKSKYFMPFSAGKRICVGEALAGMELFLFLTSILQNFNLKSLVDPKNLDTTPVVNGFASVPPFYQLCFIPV

Cytochrome P450 2D6 = Cytochrome P450 2D6 (Homo sapiens, UniProt P10635); assay: Inhibition of CYP2D6 in human liver microsomes […] preincubated with compound for 5 mins followed by substrate addition and measured after 120 mins in presence of NADPH by LC-MS/MS analysis; type: ADME, Microsome
Chain of Cytochrome P450 2D6 (P10635 whole entry): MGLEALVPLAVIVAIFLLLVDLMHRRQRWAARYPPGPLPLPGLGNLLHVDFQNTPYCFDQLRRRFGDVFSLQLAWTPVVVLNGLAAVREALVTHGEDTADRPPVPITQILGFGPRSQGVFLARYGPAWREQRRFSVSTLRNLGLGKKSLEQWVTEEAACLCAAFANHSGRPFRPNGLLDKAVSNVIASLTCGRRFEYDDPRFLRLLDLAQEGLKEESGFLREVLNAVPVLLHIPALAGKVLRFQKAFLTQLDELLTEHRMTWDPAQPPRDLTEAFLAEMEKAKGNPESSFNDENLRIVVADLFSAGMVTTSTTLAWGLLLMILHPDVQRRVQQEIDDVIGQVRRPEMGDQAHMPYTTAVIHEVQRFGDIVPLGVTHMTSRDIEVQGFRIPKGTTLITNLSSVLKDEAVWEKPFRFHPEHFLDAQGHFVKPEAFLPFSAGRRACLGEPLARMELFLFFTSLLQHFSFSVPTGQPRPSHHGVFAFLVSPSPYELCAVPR

Cytochrome P450 3A4 = Cytochrome P450 3A4 (Homo sapiens, UniProt P08684); assay: Inhibition of CYP3A4 in human liver microsomes […] preincubated with compound for 5 mins followed by substrate addition and measured after 120 mins in presence of NADPH by LC-MS/MS analysis; type: ADME, Microsome
Chain of Cytochrome P450 3A4 (P08684 whole entry): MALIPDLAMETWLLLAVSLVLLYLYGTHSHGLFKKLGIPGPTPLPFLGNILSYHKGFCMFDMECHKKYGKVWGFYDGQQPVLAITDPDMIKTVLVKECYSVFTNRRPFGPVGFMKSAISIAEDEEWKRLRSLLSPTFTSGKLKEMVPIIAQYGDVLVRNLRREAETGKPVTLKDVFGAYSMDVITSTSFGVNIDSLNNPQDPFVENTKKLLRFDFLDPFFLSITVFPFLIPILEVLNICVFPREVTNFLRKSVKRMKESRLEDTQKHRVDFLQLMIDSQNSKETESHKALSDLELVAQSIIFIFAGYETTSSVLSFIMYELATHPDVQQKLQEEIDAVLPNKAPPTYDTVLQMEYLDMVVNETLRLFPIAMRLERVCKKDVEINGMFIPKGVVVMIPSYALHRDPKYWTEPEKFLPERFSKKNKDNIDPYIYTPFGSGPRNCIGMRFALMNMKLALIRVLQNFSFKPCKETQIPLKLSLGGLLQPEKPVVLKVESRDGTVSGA

SMILES | half-life [3] [h] | microsomal CLint [4] [µL/min/mg] | microsomal CLint [5] [µL/min/mg] | microsomal CLint [6] [µL/min/mg] | remaining at 2 h [7] [%] | remaining at 2 h [8] [%] | remaining at 1 h [9] [%] | remaining at 1 h [10] [%] | remaining at 1 h [11] [%] | remaining at 1 h [13] [%] | fraction unbound at 6 h [15] | fraction unbound at 6 h [16] | fraction unbound at 6 h [17] | fraction unbound at 6 h [18] | Vd [20] [L/kg] | Tmax [21] [h] | Cmax [22] [µg/mL] | IC50 at 48 h [28] [µM] | IC50 (Cytochrome P450 1A2) [µM] | IC50 (Cytochrome P450 2C9) [µM] | other results
O=C1O[C@@H](CO)CN1c1ccc(-c2ccc(/C=N/N3CCOCC3)nc2)c(F)c1 | 10.2 | 3.25 | 2.3 | 2.02 | 93.4 | 96 | 98.6 | 115 | 103 | 107 | 0.144 | 0.169 | 0.041 | 0.117 | 0.81 | 1.33 | 2.32 | > 30 | > 30 | > 30 | MIC (Staphylococcus aureus): 0.06 mg/L (≈ 0.15 µM); MIC (Enterococcus faecalis): 0.5 mg/L (≈ 1.25 µM); half-life [1]: 1.83 h; half-life [2]: 19.2 h; remaining at 1 h [12]: 102%; Stability [14]: 125%; solubility [19]: 52.6 µM (≈ 21.1 µg/mL); half-life [23]: 2.1 h; clearance [24]: 0.354 L/h/kg; Tmax [25]: 2 h; Cmax [26]: 4.81 µg/mL; AUC(0-t) at 24 h [27]: 29.3 µg·h/mL; IC50 (Cytochrome P450 2D6): > 30 µM; IC50 (Cytochrome P450 3A4): > 30 µM
CC(=O)NC[C@H]1CN(c2ccc(N3CCOCC3)c(F)c2)C(=O)O1 [LINEZOLID] | 10.4 | 0.446 | 2.22 | 2.18 | 93.9 | 92.3 | 110 | 110 | 107 | 99.1 | 0.716 | 0.829 | 0.639 | 0.721 | 0.75 | 0.5 | 4.83 | > 30 | > 30 | > 30 | half-life [2]: 34.6 h; remaining at 1 h [12]: 99.4%; remaining at 1 h ([14]; read-out: Stability): 110%; half-life [23]: 0.39 h; clearance [24]: 1.24 L/h/kg; Tmax [25]: 0.25 h; Cmax [26]: 10 µg/mL; AUC(0-t) at 24 h [27]: 24 µg·h/mL; IC50 (Cytochrome P450 2D6): > 30 µM; IC50 (Cytochrome P450 3A4): > 30 µM
O=C1O[C@@H](CO)CN1c1ccc(-c2ccc(/C=N/N3CCCCC3)nc2)c(F)c1 | 1.61 | 17.2 | 14.5 | 9.37 | 63.3 | 75.2 | 118 | 100 | 104 | 97.4 | 0.013 | 0.017 | 0.006 | 0.013 | 1.06 | 1.67 | 1.38 | > 30 | > 30 | 5.38 | MIC (Staphylococcus aureus): 0.03 mg/L (≈ 0.0753 µM); MIC (Enterococcus faecalis): 0.5 mg/L (≈ 1.25 µM); beta t1/2 ([1]; microsomes, 2 h): 2 h; half-life [2]: 1.78 h; Stability [12]: 149%; Stability [14]: 123%; solubility [19]: 58.4 µM (≈ 23.3 µg/mL); half-life [23]: 1.54 h; clearance [24]: 0.834 L/h/kg; Tmax [25]: 2 h; Cmax [26]: 0.817 µg/mL; AUC(0-t) at 24 h [27]: 4.74 µg·h/mL; IC50 (Cytochrome P450 2D6): > 30 µM; IC50 (Cytochrome P450 3A4): > 30 µM
O=C1O[C@@H](CO)CN1c1ccc(-c2ccc(/C=N/N3CCS(=O)(=O)CC3)nc2)c(F)c1 | 12.1 | 2.39 | 2.07 | 1.07 | 92.8 | 96 | 104 | 107 | 106 | 113 | 0.223 | 0.275 | 0.096 | 0.245 | 0.73 | 0.42 | 0.597 | > 30 | > 30 | > 30 | MIC (Staphylococcus aureus): 0.125 mg/L (≈ 0.279 µM); MIC (Enterococcus faecalis): 0.5 mg/L (≈ 1.11 µM); half-life [1]: 15.3 h; beta t1/2 ([2]; microsomes, 2 h): 98.85 h; Stability [12]: 126%; Stability [14]: 133%; solubility [19]: 72.2 µM (≈ 32.4 µg/mL); IC50 (Cytochrome P450 2D6): > 30 µM; IC50 (Cytochrome P450 3A4): > 30 µM
